These results are taken from patent publication US20130115171A1, “NAV1.7-RELATED ASSAYS” (priority 2011, published 2013).

The test system of series [1] is male rats. The conditions noted are these: rat, in vivo. The method, then:
Veratridine was injected intra-plantar at 30 micrograms.
Known preclinical and clinical analgesics were tested to see if they could prevent veratridine-induced behaviors.

Series [2] has as its system male CD1 mice. Type of series: in vivo, mouse.
Series [3] concerns NaV1.7. The series is classed as in vivo, mouse. The conditions noted are these: for Flinching response to paw injection: one microgram. The text has this: Activation of one, some, or all of the nine sodium channel isoforms might produce painful behaviors. […] All behavioral experiments were done with the observer blinded as to the mouse genotype or treatment.
The target of series [4] is NaV1.8 (Rattus norvegicus, UniProt Q62968). Conditions: read-out: TTX IC50; cited from earlier work.
The target in series [5] is NaV1.6 (Rattus norvegicus, UniProt O88420). Conditions: read-out: TTX IC50; cited from earlier work.
Series [6] concerns the target NaV1.3 (Rattus norvegicus, UniProt P08104). Conditions: read-out: TTX IC50; cited from earlier work.
In series [7] the target is NaV1.7 (Rattus norvegicus, UniProt O08562). The conditions noted are these: read-out: TTX IC50; cited from earlier work.
Series [8] has as its target NaV1.4 (Rattus norvegicus, UniProt P15390). The conditions noted are these: read-out: TTX IC50; cited from earlier work.
Series [9] concerns the target hNaV1.7 (Homo sapiens, UniProt Q15858).

The IC50 is the concentration needed to halve the response being measured.

Molecules are shown by their SMILES. Entries after “also recorded” stand apart in the source; their conditions may differ. Read-outs that look alike come from different tables or passages of the source. A value given as a limit tells only on which side of the number the result lay.

Chain of hNaV1.7 (Q15858 whole entry): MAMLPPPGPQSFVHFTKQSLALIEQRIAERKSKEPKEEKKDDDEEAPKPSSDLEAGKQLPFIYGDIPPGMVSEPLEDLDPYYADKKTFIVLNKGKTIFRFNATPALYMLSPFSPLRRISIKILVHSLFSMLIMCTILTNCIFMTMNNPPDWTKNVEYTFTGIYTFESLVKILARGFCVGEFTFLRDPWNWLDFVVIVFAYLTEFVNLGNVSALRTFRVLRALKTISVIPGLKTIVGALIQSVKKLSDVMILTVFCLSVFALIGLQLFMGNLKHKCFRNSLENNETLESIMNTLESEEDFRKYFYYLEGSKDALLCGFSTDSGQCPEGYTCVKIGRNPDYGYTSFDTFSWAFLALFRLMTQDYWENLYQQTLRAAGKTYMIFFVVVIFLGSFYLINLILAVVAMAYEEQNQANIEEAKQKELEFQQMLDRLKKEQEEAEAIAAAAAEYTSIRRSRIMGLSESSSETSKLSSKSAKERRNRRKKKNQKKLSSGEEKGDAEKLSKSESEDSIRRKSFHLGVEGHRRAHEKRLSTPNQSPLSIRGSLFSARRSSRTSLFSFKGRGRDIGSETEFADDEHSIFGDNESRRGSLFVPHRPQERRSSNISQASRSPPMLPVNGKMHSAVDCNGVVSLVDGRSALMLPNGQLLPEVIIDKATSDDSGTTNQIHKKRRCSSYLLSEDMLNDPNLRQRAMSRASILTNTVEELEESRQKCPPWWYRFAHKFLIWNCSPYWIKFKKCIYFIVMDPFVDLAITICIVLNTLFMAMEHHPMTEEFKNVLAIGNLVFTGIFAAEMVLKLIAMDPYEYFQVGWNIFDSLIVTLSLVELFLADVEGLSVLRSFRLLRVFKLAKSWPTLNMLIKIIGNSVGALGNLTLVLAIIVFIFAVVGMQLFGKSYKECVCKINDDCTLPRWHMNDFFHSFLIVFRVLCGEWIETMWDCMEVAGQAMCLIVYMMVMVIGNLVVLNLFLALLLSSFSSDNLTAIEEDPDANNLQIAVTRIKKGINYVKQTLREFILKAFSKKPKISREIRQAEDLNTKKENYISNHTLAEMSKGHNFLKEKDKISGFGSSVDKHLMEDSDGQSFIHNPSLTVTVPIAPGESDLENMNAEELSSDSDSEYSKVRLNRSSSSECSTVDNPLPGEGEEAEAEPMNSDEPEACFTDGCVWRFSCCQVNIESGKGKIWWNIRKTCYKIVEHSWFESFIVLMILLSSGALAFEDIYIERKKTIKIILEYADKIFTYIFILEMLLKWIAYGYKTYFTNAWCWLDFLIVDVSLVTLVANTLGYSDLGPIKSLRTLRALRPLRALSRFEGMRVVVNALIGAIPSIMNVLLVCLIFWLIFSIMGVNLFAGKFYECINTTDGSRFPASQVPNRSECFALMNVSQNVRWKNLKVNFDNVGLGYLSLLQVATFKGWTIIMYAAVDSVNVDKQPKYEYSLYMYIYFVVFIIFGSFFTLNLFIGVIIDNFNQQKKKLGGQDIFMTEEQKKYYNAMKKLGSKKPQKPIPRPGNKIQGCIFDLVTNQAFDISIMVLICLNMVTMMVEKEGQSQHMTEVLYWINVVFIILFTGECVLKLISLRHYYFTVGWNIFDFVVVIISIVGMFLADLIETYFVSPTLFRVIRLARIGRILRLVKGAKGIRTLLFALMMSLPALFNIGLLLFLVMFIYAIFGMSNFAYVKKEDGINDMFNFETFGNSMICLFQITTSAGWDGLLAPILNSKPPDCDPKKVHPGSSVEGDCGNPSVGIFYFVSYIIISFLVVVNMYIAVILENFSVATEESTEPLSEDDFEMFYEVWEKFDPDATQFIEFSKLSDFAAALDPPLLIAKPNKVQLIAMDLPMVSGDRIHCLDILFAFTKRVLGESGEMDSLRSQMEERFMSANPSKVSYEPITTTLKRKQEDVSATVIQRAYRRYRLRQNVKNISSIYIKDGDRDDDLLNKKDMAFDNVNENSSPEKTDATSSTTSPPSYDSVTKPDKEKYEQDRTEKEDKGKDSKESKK
Chain of NaV1.4 (P15390 whole entry, looked up): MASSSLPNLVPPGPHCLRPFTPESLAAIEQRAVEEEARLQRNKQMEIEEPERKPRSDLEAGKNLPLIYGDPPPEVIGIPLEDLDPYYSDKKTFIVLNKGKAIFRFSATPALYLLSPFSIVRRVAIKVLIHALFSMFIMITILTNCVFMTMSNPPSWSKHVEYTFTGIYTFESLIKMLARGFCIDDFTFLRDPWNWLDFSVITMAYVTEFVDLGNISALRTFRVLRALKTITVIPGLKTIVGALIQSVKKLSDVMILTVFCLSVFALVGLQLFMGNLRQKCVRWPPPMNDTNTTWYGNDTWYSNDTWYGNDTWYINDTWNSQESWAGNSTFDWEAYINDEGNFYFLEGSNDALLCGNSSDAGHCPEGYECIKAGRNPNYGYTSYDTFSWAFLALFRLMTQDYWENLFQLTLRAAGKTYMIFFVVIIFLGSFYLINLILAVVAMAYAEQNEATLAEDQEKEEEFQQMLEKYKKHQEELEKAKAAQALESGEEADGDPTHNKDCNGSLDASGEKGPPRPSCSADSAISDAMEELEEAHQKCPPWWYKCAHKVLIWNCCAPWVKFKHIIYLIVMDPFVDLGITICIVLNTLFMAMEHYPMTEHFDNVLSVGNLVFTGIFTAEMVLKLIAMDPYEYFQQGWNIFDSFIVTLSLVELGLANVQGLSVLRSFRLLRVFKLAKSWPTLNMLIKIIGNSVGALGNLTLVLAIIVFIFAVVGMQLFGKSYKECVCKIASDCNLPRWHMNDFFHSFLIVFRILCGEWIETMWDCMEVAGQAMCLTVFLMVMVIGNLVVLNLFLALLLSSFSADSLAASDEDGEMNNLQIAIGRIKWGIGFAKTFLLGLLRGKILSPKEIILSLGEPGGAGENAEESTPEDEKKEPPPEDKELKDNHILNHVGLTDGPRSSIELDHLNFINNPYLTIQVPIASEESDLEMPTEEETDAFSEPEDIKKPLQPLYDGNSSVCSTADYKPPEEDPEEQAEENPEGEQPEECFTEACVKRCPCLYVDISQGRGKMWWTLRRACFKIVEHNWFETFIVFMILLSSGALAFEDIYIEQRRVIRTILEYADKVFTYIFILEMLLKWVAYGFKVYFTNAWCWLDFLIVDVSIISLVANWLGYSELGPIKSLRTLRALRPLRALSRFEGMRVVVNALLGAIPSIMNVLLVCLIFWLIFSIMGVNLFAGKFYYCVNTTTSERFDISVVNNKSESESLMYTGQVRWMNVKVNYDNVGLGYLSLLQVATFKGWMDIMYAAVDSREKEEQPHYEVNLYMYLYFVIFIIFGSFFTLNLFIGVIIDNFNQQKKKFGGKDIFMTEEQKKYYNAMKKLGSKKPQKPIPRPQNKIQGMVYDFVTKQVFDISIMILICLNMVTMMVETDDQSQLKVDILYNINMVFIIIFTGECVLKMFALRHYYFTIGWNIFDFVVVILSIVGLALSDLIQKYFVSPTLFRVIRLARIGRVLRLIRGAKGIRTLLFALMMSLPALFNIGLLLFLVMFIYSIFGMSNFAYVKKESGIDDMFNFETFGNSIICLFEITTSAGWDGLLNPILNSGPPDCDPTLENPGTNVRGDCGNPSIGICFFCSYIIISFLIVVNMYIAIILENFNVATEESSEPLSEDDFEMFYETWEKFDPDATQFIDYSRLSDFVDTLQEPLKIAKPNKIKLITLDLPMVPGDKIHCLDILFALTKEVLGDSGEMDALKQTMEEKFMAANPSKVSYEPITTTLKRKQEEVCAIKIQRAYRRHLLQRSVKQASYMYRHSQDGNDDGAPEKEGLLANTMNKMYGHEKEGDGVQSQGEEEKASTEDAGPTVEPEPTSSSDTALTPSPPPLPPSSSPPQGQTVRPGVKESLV

`CN1C(=O)CN=C(c2ccccc2)c2cc(Cl)ccc21` [Diazepam]: in [1], the “Inhibition of veratridine-induced pain-like behaviors (licking and paw-flinching)” value (from here on “Inhibition”) is “ineffective”; the “Significant Reversal of Edema” value is listed as “No”; the “Significant Reversal of Flinching” value is “No”; the “Significant Reversal of Lifting” value is “No”.

As for `CNCC[C@H](Oc1cccc2ccccc12)c1cccs1` [Duloxetine, duloxetine], in series [1], the “Inhibition” value was “inhibited somewhat”; the “Significant Reversal of Edema” value was “No”.

For `NCC1(CC(=O)O)CCCCC1` [Gabapentin, gabapentin], in [1], the “Inhibition” value is listed as “not all”; the “Significant Reversal of Edema” value was “No”.

For the compound `Cc1cccc(C)c1OCC(C)N` (stereo not shown) [Mexiletine, mexiletine], in [1], the “Inhibition” value was “inhibited fully”; the “Significant Reversal of Edema” value is on record as “Yes”; the “Significant Reversal of Flinching” value is on record as “Yes”; the “Significant Reversal of Lifting” value is given as “Yes”. Also, in [1] (po), the “Lifting and flinching behaviors” value is recorded as “prevented in a dose-dependent manner”. For the same compound, in [2] (mouse, in vivo, ip, 30 mg/kg), the “Block of effects of veratridine (total lifting time)” value was “blocked”, the “Prevention of lifting/licking response to deltamethrin” value is listed as “prevented the lifting/licking response” and the “Prevention of lifting/licking response to grayanotoxin III” value is “prevented the lifting/licking response”. The “Prevention of veratridine-induced flinching / lifting/licking” value in series [3] (mouse, in vivo) is listed as “prevents the flinching behavior; also recorded: prevented flinching”.

With `CN1CC[C@]23c4c5ccc(O)c4O[C@H]2[C@@H](O)C=C[C@H]3[C@H]1C5` [Morphine, morphine], in [1], the “Inhibition” value is listed as “inhibited somewhat”; the “Significant Reversal of Edema” value is “No”.

As to `COc1ccc2cc([C@H](C)C(=O)O)ccc2c1` [Naproxen, naproxen], in [1], the “Significant Reversal of Edema” value is recorded as “No”.

In the case of `NC1=N[C@H](O)[C@H]2[C@H]3O[C@]4(O)O[C@@H]([C@@H](O)[C@@]2(N1)[C@@H]4O)[C@]3(O)CO` [TTX, tetrodotoxin], the IC50 is over 50000 nM in series [4]; 1 nM in series [5]; 2 to 15 nM in series [6]; 4 nM in series [7]; 5 nM in series [8].

On to `CC1(C)[C@H](C(=O)O[C@H](C#N)c2cccc(Oc3ccccc3)c2)[C@@H]1C=C(Br)Br` [deltamethrin], for which the “Lifting/licking response (total flinches) after injection” value in series [2] (male CD1 mice, 10 microgram suspension dose of deltamethrin) is “produced a lifting/licking response”.

With `CC1(O)CC23CC(O)C4(O)C(CC(O)C4(C)C)C(C)(O)C2CCC1C3O` (stereo not shown) [grayanotoxin III], the “Lifting/licking response (total flinches) after injection” value in series [2] (mouse, in vivo) was “produced a lifting/licking response”. Also, in series [9], the “Activation of hNaV1.7” value is “activated hNaV1.7; also recorded: activated NaV1.7” and the “Voltage at which sodium currents start to activate” value is on record as −95 mV.

`COc1ccc(C(=O)O[C@H]2CC[C@@]3(C)[C@@H]4CC[C@@H]5C3(C[C@@]3(O)[C@@H]6CN7C[C@@H](C)CC[C@H]7[C@@](C)(O)[C@@]6(O)[C@@H](O)C[C@@]53O)O[C@]24O)cc1OC` [veratridine, 4α,9-Epoxy-3β-veratroyloxy-5β-cevan-4β,12,14,16β,17,20-hexaol]: in series [1], the “Pain-related behaviors (paw lifting/licking, flinching) after injection into the paw” value is on record as “caused two separate pain-related behaviors”. Besides, the “Side effects at higher doses” value in [1] was “variable neurological side effects”. For the same compound, in series [2] (mouse, in vivo), the “Lifting behavior after i.pl. injection” value is reported as “caused equivalent lifting behavior”. Further, the “Flinching response to paw injection” value in series [3] (global NaV1.7 knockout mice) is recorded as “no flinching or licking behavior; also recorded: no effect; also recorded: no response”; in [3] (wild type heterozygote mice), “robust flinching behavior; also recorded: robust flinching response”.
